# Assays:
# [1] = UV absorption and fluorescence spectra; assay type: physicochemical
# Description: The crude product was then injected onto a semi-preparative HPLC column, where the flow rate was 3 mL/min, with the mobile phase starting from 5% solvent B (0.1%TFA in CH3CN) and 95% solvent A (0.1%TFA in water) (0-3 min) to 65% solvent B and 35% solvent A at 33 min, then going to 85% solvent B and 15% solvent A (33-36 min), maintaining this solvent composition for another three minutes (36-39 min), and returning to initial solvent composition by 42 min. Product elution was monitored at both 218 and 590 nm using a UV-Vis detector. The product peak was collected, lyophilized, and identified by MALDI-TOF-MS. The chemical purity of product was determined by analytical HPLC (same gradient as used for semi-preparative HPLC; flow rate: 1.0 ml/min). The product was re-dissolved in saline at a concentration of 1 mg/mL, and stored in the dark at −80° C. until use. The absorbance spectrum of Cy5.5-2DG was rerecorded on an Agilent 8453 UV-visible ChemStation (Agilent Technologies, Wilmington, DE), and fluorescence spectrum of Cy5.5-2DG was measured on a Fluoromax-3 fluorophotometer (JOBIN YVON/HORIBA, Edison, N.J.).
# [2] = Stability on in vitro incubation in mouse serum, HPLC analysis; assay type: in vitro ADME; conditions: 30 minutes incubation in mouse serum
# Description: The stability of the Cy5.5-2DG compound was evaluated by incubating the compound in vitro in mouse serum and analyzing the serum as a function of time by high pressure liquid chromatography (HPLC). […] The main peak is observed at 15.2 minutes.
# [3] = system: human glioblastoma cells (U87MG); assay: In vitro cell uptake by fluorescence microscopy, U87MG; assay type: cell-based; conditions: 100 nM, 1 hour
# Description: Human glioblastoma U87MG cells were cultured in Dulbecco's modified Eagle medium (DMEM, Invitrogen Life Technologies, Carlsbad, Calif.), high glucose plus 10% fetal bovine serum (FBS), and 1% penicillin-streptomycin. The cells were maintained in a humidified atmosphere of 5% CO2 at 37° C., with the medium changed every other day. A confluent monolayer was detached with trypsin and dissociated into a single cell suspension for further cell culture.
# For fluorescence microscopic studies, 1 M cells were cultured on 35 mm MatTek glass bottom culture dishes (Cat #: P35G-0-14-C, Ashland, Mas.). […] The fluorescence signal of the cells was recorded using an Axiovert 200M fluorescence microscope (Carl Zeiss MicroImaging, Inc., Thornwood, N.Y.) equipped with a Cy5.5 filter set (Exciter, HQ 650/20 nm; Emitter, HQ 675/35 nm). An AttoArc HBO 100 W microscopic illuminator was used as a light source for fluorescence excitation. Images were taken using a thermoelectrically cooled charge-coupled device (CCD) (Micromax, model RTE/CCD-576, Princeton Instruments Inc., Trenton, N.J.) and analyzed using WinView Software version 1.6.2 (Princeton Instruments Inc., Trenton, N.J.)
# Tumor uptake of the Cy5.5-2DG compound into human glioblastoma cells (U87MG) was determined by incubating the cells in vitro with the compound for one hour at either 37° C. or at 4° C., as described in Example 2. […]
# [4] = system: C6 rat glioma cells; assay: In vitro cell uptake by fluorescence microscopy, C6; assay type: cell-based; conditions: 1 hour
# Description: (§1) For fluorescence microscopic studies, 1 M cells were cultured on 35 mm MatTek glass bottom culture dishes (Cat #: P35G-0-14-C, Ashland, Mas.). After 24 hours, the cells were washed with phosphate-buffered saline (PBS) and then incubated at 37° C. or 4° C. in the presence of 100 nM Cy5.5-2DG for 1 hour. Afterwards, cells were washed in 1 mL ice-cold PBS. The fluorescence signal of the cells was recorded using an Axiovert 200M fluorescence microscope (Carl Zeiss MicroImaging, Inc., Thornwood, N.Y.) equipped with a Cy5.5 filter set (Exciter, HQ 650/20 nm; Emitter, HQ 675/35 nm). An AttoArc HBO 100 W microscopic illuminator was used as a light source for fluorescence excitation. Images were taken using a thermoelectrically cooled charge-coupled device (CCD) (Micromax, model RTE/CCD-576, Princeton Instruments Inc., Trenton, N.J.) and analyzed using WinView Software version 1.6.2 (Princeton Instruments Inc., Trenton, N.J.)
# Additional in vitro studies were conducted with several other tumor cells lines, including C6 rat glioma cells. Following the procedure set forth in Example 2, the glioma cells were incubated for one hour at 37° C. or at 4° C., and light images and fluorescent images were taken. The light images are shown in FIGS. 6A and 6B and the fluorescent images in FIGS. 6C and 6D. Both light images show cells in the image field.
# [5] = system: A375M human melanoma cells; assay: In vitro cell uptake by fluorescence microscopy, A375M; assay type: cell-based; conditions: 1 hour
# Description: as §1
# The light images (FIGS. 7A and 7B) show cells in the optical field.
# [6] = system: murine melanoma cells B16F10; assay: In vitro cell uptake by fluorescence microscopy, B16F10; assay type: cell-based; conditions: 1 hour
# Description: as §1
# FIGS. 8A and 8C show a light image (FIG. 8A) and a fluorescent image (FIG. 8C) of murine melanoma cells B16F10 incubated in vitro with Cy5.5-2DG for one hour at 37° C. […] FIGS. 8B and 8D show a light image (FIG. 8B) and a fluorescent image (FIG. 8D) of the same type of cells incubated in vitro with Cy5.5-2DG for one hour at 4° C.
# [7] = system: MDA-MB-435 human breast carcinoma cells; assay: In vitro cell uptake by fluorescence microscopy, MDA-MB-435; assay type: cell-based; conditions: 1 hour
# Description: as §1
# FIGS. 9A-9D illustrate the results of a similar study using MDA-MB-435 human breast carcinoma cells. Incubation at 37° C. […] (FIGS. 9B and 9D).
# [8] = system: human glioblastoma xenograft (U87MG); assay: In vivo fluorescence imaging of mice bearing a U87MG glioblastoma xenograft
# Description: All animal studies were carried out in compliance with federal and local institutional rules for the conduct of animal experimentation. Female athymic nude mice (nu/nu, 10-12 weeks old), obtained from Charles River Laboratories (Boston, Mas.), were inoculated subcutaneously in the right foreleg with 5×10^6 U87MG cultured glioblastoma cells suspended in 100 μL of PBS. Two to three weeks after inoculation, when the tumors reached 0.4-0.6 cm in diameter, the tumor bearing mice were subject to in vivo imaging studies.
# In vivo fluorescence imaging was performed with a cooled charged-coupled device (CCD) camera (Xenogen IVIS™ 200 small animal imaging system, Xenogen, Alameda, Calif.). A Cy5.5 filter set was used for acquiring Cy5.5-2DG fluorescence in vivo. Identical illumination settings (lamp voltage, filters, f/stop, field of views, binning) were used for acquiring all images, and fluorescence emission was normalized to photons per second per centimeter squared per steradian (p/s/cm^2/sr). Images were acquired and analyzed using Living Image® D2.5 software (Xenogen).
# Mice were injected via tail vein with 50 or 500 pmol Cy5.5-2DG and subjected to optical imaging at various time points post injection with a sampling of multiple angles while remaining sedated. […]
# All the data are given as means ± SD of n independent measurements. Statistical analysis was performed using a Student's t-test. Statistical significance was assigned for P values <0.05. For determining tumor contrast, mean fluorescence intensities of the tumor area at the right shoulder of the animal (T) and of the corresponding area at the left shoulder (N) were calculated by means of the region of interest function of Living Image software(Xenogen) integrated with Igor (Wavemetrics, Lake Oswego, Oreg.). Dividing T by N yielded the contrast between tumor tissue and normal tissue.
# In vivo studies were done to evaluate performance of the Cy5.5-2DG compound in tumor-bearing subjects. As described in Example 3, mice were inoculated in the right foreleg with 5×10^6 U87MG cultured glioblastoma cells. Two to three weeks after inoculation, when the tumors reached 0.4-0.6 cm in diameter, the tumor-bearing mice were used for in vivo imaging studies.
# In one study, the mice received 500 pmol of Cy5.5-2DG compound, injected via tail vein. At various times post injection of the probe, an animal was sedated and then imaged using a small animal imaging system available under the trade designation IVIS® (Xenogen, Alameda, Calif.). In other studies described below with respect to FIGS. 22-23, imaging was also done using an imaging system from ART eXplore Optix (ART Inc./GE Healthcare) and compared to imaging using the imaging system IVIS®. FIGS. 10A-10M are images generated with the IVIS® system of sedated, live mice in the prone position as a function of time after administration of 500 pmol of Cy5.5-2DG. […] At 1 hour (FIG. 10B), 2 hours (FIG. 10C), 4 hours (FIG. 10D), and 5 hours (FIG. 10E), the probe progressively clears from the body and begins to localize in the tumor in the right foreleg. In fact, by two hours post injection, accumulation of the compound in the tumor is readily apparent in the image (FIG. 10C). […] The presence of the probe in the tumor is apparent in all the images, long after the probe has cleared from healthy tissue.
# [9] = system: human melanoma (A375M) xenograft; assay: In vivo fluorescence imaging of mice bearing a human melanoma (A375M) xenograft; conditions: n=3
# Description: Another study was conducted using mice (n=3) bearing a human melanoma (A375M) xenograft. When the tumor reached […] diameter, the mice received via tail vein injection 500 pmol of Cy5.5-2DG compound.
# [10] = 500 pmol i.v., lateral position
smiles,measurement,setting,value
"CCN1\C(=C/C=C/C=C/C2=[N+](CCCCCC(=O)O)c3ccc4c(S(=O)(=O)O)cc(S(=O)(=O)O)cc4c3C2(C)C)C(C)(C)c2c1ccc1c(S(=O)(=O)[O-])cc(S(=O)(=O)O)cc21 [Cy5.5® dye, reference compound]",UV absorption wavelength,[1],about 675 nm
same,fluorescent emission wavelength,[1],about 694 nm
CC[N+]1=C(C=CC=CC=C2N(CCCCCC(=O)NC3C(O)OC(CO)C(O)C3O)c3ccc4c(S(=O)(=O)[O-])cc(S(=O)(=O)O)cc4c3C2(C)C)C(C)(C)c2c1ccc1c(S(=O)(=O)[O-])cc(S(=O)(=O)O)cc21.[K+] (stereo not shown) [Cy5.5-2DG],UV absorption wavelength,[1],about 675 nm
same,fluorescent emission wavelength,[1],about 694 nm
same,stability in mouse serum,[2],stable
same,uptake of the fluorescent compound by the cells,[3]; 4° C.,lack of fluorescing cells
same,uptake of the fluorescent compound by the cells,[3]; 37° C.,considerably more uptake
same,uptake into the cells,[4]; 4° C.,"took up little, if any, of the compound"
same,uptake into the cells,[4]; 37° C.,distinct fluorescing cells visible
same,uptake into the cells,[5]; 4° C.,no apparent fluorescence
same,uptake into the cells,[5]; 37° C.,took in the compound
same,uptake into the cells,[6]; 4° C.,"Little, if any"
same,uptake into the cells,[6]; 37° C.,Uptake of the compound into the cells is apparent
same,uptake into the tumor cells,[7]; 4° C.,little of the compound
same,uptake into the tumor cells,[7]; 37° C.,resulted in uptake
same,ratio of fluorescence intensity of tumor tissue to healthy tissue,"[8]; 50 pmol i.v., lateral position",about two
same,time after injection at which accumulation in the tumor is apparent,"[8]; 50 pmol i.v., lateral position",1 h
same,time after injection at which preferential accumulation in the tumor is apparent,"[8]; 50 pmol i.v., prone position",30 min
same,time to maximum fluorescence intensity,"[8]; 50 pmol i.v., prone position",≤ 30 min
same,ratio of fluorescence intensity of tumor tissue to healthy tissue,"[8]; 50 pmol i.v., prone position, 30 minutes after injection",1.5
same,ratio of fluorescence intensity of tumor tissue to healthy tissue,"[8]; 50 pmol i.v., prone position, by about 10 hours after injection",more than two
same,latest time point with fluorescence of the tumor tissue observed,[8]; [10],94 h
same,time by which compound has cleared from the tumor (tumor no longer visible),[8]; [10],≤ 114 h
same,time post injection at which localization in the tumor is apparent in the image,[8]; [10],two
same,ratio of fluorescence intensity of tumor tissue to healthy tissue,"[8]; 500 pmol i.v., lateral position, by about five hours post injection",two
same,ratio of fluorescence intensity of tumor tissue to healthy tissue,"[8]; 500 pmol i.v., lateral position, up to 100 hours post injection",around two
same,time post injection at which accumulation in the tumor is apparent in the image,"[8]; 500 pmol i.v., prone position",two
same,ratio of fluorescence intensity of tumor tissue to healthy tissue (average radiance),"[8]; 500 pmol i.v., prone position, 120 hours post injection",1.5
same,ratio of fluorescence intensity of tumor tissue to healthy tissue (average radiance),"[8]; 500 pmol i.v., prone position, about 4 hours post-injection",1.5
same,ratio of fluorescence intensity of tumor tissue to healthy tissue (average radiance),"[8]; 500 pmol i.v., prone position, about 18 hours post injection",two
same,ex vivo fluorescence of dissected tumor versus major tissues and organs,"[8]; 500 pmol, 45 hours post injection",highest fluorescence intensity among the tissues imaged
same,retention in the tumor,[8]; after single administration,up to 100 hours
same,fluorescence of tumor tissue,"[9]; 500 pmol i.v., 3, 24 and 48 hours post-injection",continued preferential fluorescence of tumor tissue
same,localization in the tumor,"[9]; 500 pmol i.v., 2 hours post-injection",localization of the compound in the tumor is apparent

# — US20060280687A1, “Compounds for tissue imaging and methods of use thereof” (priority 2005, published 2006)
